Results: PMC11266932, “Enhanced absorption of prenylated cinnamic acid derivatives from Brazilian green propolis by turmeric in humans and rats” (Food Science & Nutrition, 2024)
Like-named read-outs stand apart in the source and are kept apart here.

Key:
[1] = Bidirectional transport assay across parent MDCK II cell monolayer; format: in vitro ADME, canine; details: dog; for efflux ratio at 120 min, 10 μM: MDCK, pH 7.4, 10 μM, Papp B to A / Papp A to B, read-out: Flux ratio (MDCK II) (efflux ratio, ER); for Papp A→B at 120 min, 10 μM / Papp B→A at 120 min, 10 μM: mean ± SE, n = 2
Protocol: (§1) The Madin‐Darby canine kidney (MDCK II) cell line and MDCK II cells overexpressing multidrug resistance 1 (MDR1) or breast cancer resistance protein (BCRP) were purchased from the Netherlands Cancer Institute (Amsterdam, Netherlands) and SOLVO Biotechnology (Szeged, Hungary), respectively. The cell lines were routinely cultured in Dulbecco's modified Eagle's medium (DMEM) containing 10% fetal bovine serum and 1% penicillin/streptomycin at 37°C in 5% CO2. All cells were seeded in a feeder tray at a density of 3–6 × 10^4 cells/well and grown for 3–4 days. On the day of the transport study, cell monolayers were washed with Hanks' balanced salt solution (HBSS) buffer containing 0.1% BSA (pH 7.4) and incubated at 37°C for 20 min. Artepillin C and drupanin dissolved in DMSO (10 mM) were added to the transport buffer (HBSS containing 10 mM HEPES, 0.2% glucose, 0.1% BSA, pH 7.4) to a final concentration of 10 μM and then loaded into the apical or basolateral chamber. After 120 min of incubation, 150 μL of the aliquots were collected from the donor and receiver chambers and mixed with an equal volume of 50% methanol. After centrifugation at 3000 rpm for 10 min at 4°C, the supernatants were filtered and subjected to LC–MS/MS analysis.
(§2) The in vitro samples were analyzed using HPLC (LC‐20A, Shimadzu, Kyoto, Japan) with a reversed‐phase column (Inertsil ODS‐3, 2.1 × 33 mm, ID. 3 μm, GL Sciences, Tokyo, Japan) held at 40°C. The mobile solvents used were water with 10 mM ammonium acetate (pH 4.0, A) and methanol (B) pumped at a flow rate of 0.4 mL/min. The following gradient was employed: 10%–90% B (0–0.5 min), 90% B (0.5–2.5 min), and 10% B (2.5–4 min). The eluent was monitored using a triple quadrupole mass spectrometer (API 4000, AB Sciex, Framingham, MA, USA) incorporating an electrospray ion source (ESI) operating in the multiple reaction monitoring mode. The ESI source was operated in negative ionization mode at 600°C with a spray voltage of −4.5 kV. The curtain gas (nitrogen), collision gas (nitrogen), nebulizer gas (whole air), and drying gas (whole air) were set at 40, 5, 50, and 70 psi, respectively. […] Artepillin C and drupanin were diluted in 50% methanol to concentrations of 1.6, 3.2, 8, 40, 200, 1000, and 2000 nM and were used as external standards. Sulfaphenazole (0.2 μM) was used as an internal standard.
(§3) The apparent permeability coefficients (Papp) for both directions, from the apical side to the basolateral side (A to B) and from the basolateral side to the apical side (B to A) in the cell monolayer, were calculated using the following equation: (1) Papp=dQ/dt/A×C0 where dQ/dt is the permeation rate (nmol/s), A is the membrane area (cm^2), and C0 is the initial concentration of the compound in the donor compartment (nM). The efflux ratios (ER) in the B‐to‐A and A‐to‐B directions were determined using the following equation: (2) ER=PappBtoA/PappAtoB

MDR1 (P-gp) = biological target: T1, MDR1 (P-gp) (Homo sapiens, UniProt P08183); experiment: Bidirectional transport assay across MDCK II-MDR1 cell monolayer; format: in vitro ADME; details: dog, MDCK-MDR1, pH 7.4
T1 construct: host or cells: MDCK II (Madin-Darby canine kidney) cells overexpressing MDR1
T1 sequence (P08183 whole entry): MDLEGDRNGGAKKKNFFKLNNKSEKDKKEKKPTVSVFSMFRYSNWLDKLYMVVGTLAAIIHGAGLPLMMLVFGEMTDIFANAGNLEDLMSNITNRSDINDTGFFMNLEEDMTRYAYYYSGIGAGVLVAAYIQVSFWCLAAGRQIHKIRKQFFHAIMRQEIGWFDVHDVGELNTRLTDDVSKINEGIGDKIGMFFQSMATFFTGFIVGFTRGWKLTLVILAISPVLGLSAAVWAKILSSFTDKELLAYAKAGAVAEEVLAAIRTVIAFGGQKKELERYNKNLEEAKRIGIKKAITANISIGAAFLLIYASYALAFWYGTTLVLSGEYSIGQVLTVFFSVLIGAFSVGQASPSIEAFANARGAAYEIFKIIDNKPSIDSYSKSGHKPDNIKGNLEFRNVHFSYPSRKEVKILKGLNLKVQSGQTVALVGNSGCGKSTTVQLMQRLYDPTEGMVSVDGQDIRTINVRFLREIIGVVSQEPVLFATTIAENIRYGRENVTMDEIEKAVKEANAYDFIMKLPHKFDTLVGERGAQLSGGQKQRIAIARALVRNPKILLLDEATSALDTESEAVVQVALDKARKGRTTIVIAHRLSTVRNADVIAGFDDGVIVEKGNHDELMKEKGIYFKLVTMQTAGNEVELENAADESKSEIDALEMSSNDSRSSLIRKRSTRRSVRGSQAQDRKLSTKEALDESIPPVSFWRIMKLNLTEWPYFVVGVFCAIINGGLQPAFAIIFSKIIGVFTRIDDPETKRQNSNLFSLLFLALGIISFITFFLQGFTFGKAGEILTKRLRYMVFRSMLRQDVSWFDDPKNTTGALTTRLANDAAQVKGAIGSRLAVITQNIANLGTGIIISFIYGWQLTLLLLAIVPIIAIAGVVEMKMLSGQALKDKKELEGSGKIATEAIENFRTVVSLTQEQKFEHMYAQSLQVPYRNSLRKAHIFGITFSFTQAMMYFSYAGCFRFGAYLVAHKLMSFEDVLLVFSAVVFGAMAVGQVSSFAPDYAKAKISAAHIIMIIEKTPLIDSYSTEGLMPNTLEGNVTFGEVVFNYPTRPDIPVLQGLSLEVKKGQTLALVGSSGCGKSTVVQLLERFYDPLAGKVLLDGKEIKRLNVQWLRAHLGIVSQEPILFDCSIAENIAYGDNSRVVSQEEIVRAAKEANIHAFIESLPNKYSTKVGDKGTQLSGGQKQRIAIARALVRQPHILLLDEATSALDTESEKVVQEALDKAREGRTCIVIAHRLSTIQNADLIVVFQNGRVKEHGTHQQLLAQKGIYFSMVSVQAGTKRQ
Protocol: as §1, §2, §3
(§4) Net flux ratios were calculated by dividing the ER obtained from MDCK II‐MDR1 (or BCRP) cells by that obtained from the parent MDCK II cells.

BCRP = biological target: T2, BCRP (Homo sapiens, UniProt Q9UNQ0); experiment: Bidirectional transport assay across MDCK II-BCRP cell monolayer; format: in vitro ADME; details: dog, pH 7.4
T2 construct: host or cells: MDCK II (Madin-Darby canine kidney) cells overexpressing BCRP
T2 sequence (Q9UNQ0 1-655): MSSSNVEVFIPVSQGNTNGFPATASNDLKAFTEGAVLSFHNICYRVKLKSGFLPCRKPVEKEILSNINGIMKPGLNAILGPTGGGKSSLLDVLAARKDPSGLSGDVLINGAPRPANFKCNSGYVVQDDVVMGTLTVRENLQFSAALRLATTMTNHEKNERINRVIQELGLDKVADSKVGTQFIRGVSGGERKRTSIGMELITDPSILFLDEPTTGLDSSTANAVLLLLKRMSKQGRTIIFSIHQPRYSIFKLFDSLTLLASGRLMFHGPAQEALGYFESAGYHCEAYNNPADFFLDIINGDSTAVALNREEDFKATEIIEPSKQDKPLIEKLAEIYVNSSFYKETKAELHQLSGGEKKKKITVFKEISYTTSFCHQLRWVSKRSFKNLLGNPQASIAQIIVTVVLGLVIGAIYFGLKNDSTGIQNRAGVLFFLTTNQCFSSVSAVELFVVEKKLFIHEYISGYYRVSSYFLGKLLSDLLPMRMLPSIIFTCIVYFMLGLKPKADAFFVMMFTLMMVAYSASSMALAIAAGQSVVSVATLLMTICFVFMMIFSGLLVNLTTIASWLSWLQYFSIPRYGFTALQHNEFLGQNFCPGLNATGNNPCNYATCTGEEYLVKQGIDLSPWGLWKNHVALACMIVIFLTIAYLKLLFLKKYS
Protocol: as §1, §2, §3, §4

MDCK II cell monolayer = experiment: Bidirectional transport assay across parent MDCK II cell monolayer; format: in vitro ADME, canine; details: 10 μM; for Papp MDCK II A to B / Papp MDCK II B to A: 120 min, mean ± SE, n = 2
Protocol: as §1, §2, §3

[2] = MDCK-MDR1, pH 7.4, parent cells of the MDR1 experiment (Table 2)
[3] = pH 7.4, parent cells of the BCRP experiment (Table 3)
[4] = 10 μM, 120 min, mean ± SE, n = 2
[5] = parent cells of the BCRP experiment (Table 3)
[6] = parent cells of the MDR1 experiment (Table 2)

efflux ratio at 120 min, 10 μM ([1]; Table 2 experiment)	efflux ratio at 120 min, 10 μM ([1]; Table 3 experiment)	Papp A→B at 120 min, 10 μM [1, 2] [×10⁻⁶ cm/s]	Papp B→A at 120 min, 10 μM [1, 2] [×10⁻⁶ cm/s]	Papp A→B at 120 min, 10 μM [1, 3] [×10⁻⁶ cm/s]	Papp B→A at 120 min, 10 μM [1, 3] [×10⁻⁶ cm/s]	Papp A→B at 120 min, 10 μM (MDR1 (P-gp); [4]) [×10⁻⁶ cm/s]	Papp B→A at 120 min, 10 μM (MDR1 (P-gp); [4]) [×10⁻⁶ cm/s]	efflux ratio at 120 min, 10 μM (MDR1 (P-gp); read-out: Flux ratio (MDCK II‐MDR1) (efflux ratio, ER))	Papp A→B at 120 min, 10 μM (BCRP; [4]) [×10⁻⁶ cm/s]	Papp B→A at 120 min, 10 μM (BCRP; [4]) [×10⁻⁶ cm/s]	efflux ratio at 120 min, 10 μM (BCRP; read-out: Flux ratio (MDCK II‐BCRP) (efflux ratio, ER))	Structure (SMILES)	Papp MDCK II A to B (MDCK II cell monolayer; [5])	Papp MDCK II B to A (MDCK II cell monolayer; [5])	Papp MDCK II A to B (MDCK II cell monolayer; [6])	Papp MDCK II B to A (MDCK II cell monolayer; [6])	Flux ratio (MDCK II) (efflux ratio, ER) (MDCK II cell monolayer; Papp B to A / Papp A to B, Table 2 experiment)
0.9	0.8	11.1 ± 0.2	9.9 ± 0.2	11.6 ± 0.1	8.9 ± 0.4	13.3 ± 1.4	11.2 ± 0.2	0.8	1.3 ± 0.1	20.9 ± 0.1	15.7	CC(C)=CCc1cc(/C=C/C(=O)O)ccc1O [drupanin]	–	–	–	–	–
–	–	–	–	–	–	–	–	–	–	–	–	CC(C)=CCc1cc(/C=C/C(=O)O)cc(CC=C(C)C)c1O [artepillin C]	13.0 ± 0.8 10^−6 cm/s	10.8 ± 0.1 10^−6 cm/s	14.0 ± 0.7 10^−6 cm/s	11.2 ± 1.2 10^−6 cm/s	0.8
